# Data published in patent US20260216147A1, “USE OF A THIENOPYRIDONE DERIVATIVE IN THE TREATMENT OF DIABETIC NEPHROPATHY” (POXEL, priority 2020, published 2026).
# Legend:
# [1] = background statement; cited from earlier work
# [2] = background statement; cited from earlier work; remark: listed apart in the source
# obese ZSF1 rats [3] = assay: Glomerular filtration rate (FITC-sinistrin, transcutaneous) in obese ZSF1 rats; format: in vivo, rat; conditions: 150 mg/kg oral gavage twice a day, 90 days (24 weeks of age), vs untreated ZSF1 rats
# Source text: (§1) ZSF1 rat is a Leptin-resistant, obese, hypertensive Zucker diabetic fatty/Spontaneously hypertensive heart failure F1 hybrid (ZSF1) rat. The obese ZSF1 rat is described as a relevant pre-clinical model for the study of renal function decline to end stage renal disease in the setting of type 2 diabetes (Dower K et al., PLOS ONE 2017; 12 (7): e0181861).
# (§2) Obese ZSF1 rats and lean ZSF1 (Lean) were 12-week-old at the time of treatment initiation.
# (§3) The following groups were constituted: • Lean rats (untreated; n=5-8) • ZSF1 rats (untreated; n=9-12) • ZSF1 treated with PXL770 (n=8-12).
# (§4) The compound of Example 2, also known as PXL770 was administered by oral gavage at the dose of 150 mg/kg twice a day for 8 days (13 weeks of age) or 90 days (24-week old of age).
# (§5) The PXL770 suspension was prepared at the concentrations used in the study (150 mg/kg) in the vehicle, i.e. carboxymethylcellulose 0.5%/Tween 80 (98/2).
# At D8 and D90, glomerular filtration rate was determined with the fluorescent glomerular filtration rate tracer fluorescein isothiocyanate (FITC)-sinistrin using the transcutaneous glomerular filtration rate system (NIC-Kidney; Mannheim Pharma and Diagnostics GmbH, Mannheim, Germany) (Schock-Kusch D. et al., PLOS One 2013; 8, e71519). […]
# obese ZSF1 rats [4] = assay: Albuminuria in 15 h overnight urine of obese ZSF1 rats; format: in vivo, rat; conditions: 150 mg/kg oral gavage twice a day
# Source text: as §1, §2, §3, §4, §5
# (§6) Randomly selected animals of each group (n=8-12) were placed in separate metabolic cages in order to collect 15 h over-night urine samples at D8 and D90. Albuminuria was determined as indicator of renal dysfunction using IDEXX Vetlab analyzer. Glycosuria was determined using IDEXX Vetlab analyzer. […]
# obese ZSF1 rats [5] = assay: Glycosuria in 15 h overnight urine of obese ZSF1 rats; format: in vivo, rat; conditions: 150 mg/kg oral gavage twice a day
# Source text: as §1, §2, §3, §4, §5, §6
# obese ZSF1 rats [6] = assay: Urine volume (15 h overnight, metabolic cages) of obese ZSF1 rats; format: in vivo, rat; conditions: 150 mg/kg oral gavage twice a day, 90 days, vs untreated ZSF1 rats
# Source text: as §1, §2, §3, §4, §5, §6
# [7] = system: preclinical model of diabetic nephropathy; conditions: K. O. Cameron et al., J. Med. Chem. 2016; cited from earlier work
molecule,measurement,setting,value
N#Cc1c(O)c2c(-c3ccc(-c4ccccc4O)cc3)csc2[nH]c1=O [Compound A-799662],Oral bioavailability,[1],poor oral bioavailability
MK-8722,Cardiac side effects,[2],known to trigger cardiac side effects
"O=c1[nH]c2sc(Cl)c(-c3ccc4c(c3O)CCCC4)c2c([O-])c1-c1ccccc1.[K+] [PXL770, monohydrate potassium salt of 2-chloro-4-hydroxy-3-(5-hydroxytetralin-6-yl)-5-phenyl-7H-thieno[2,3-b]pyridin-6-one]",Glomerular filtration rate (GFR),obese ZSF1 rats [3],significantly prevented the decrease in GFR
same,Albuminuria (urine albumin level),"obese ZSF1 rats [4]; 8 days (13 weeks of age), vs age-matched untreated ZSF1 rats",a decrease in albuminuria was observed
same,Albuminuria (urine albumin level),"obese ZSF1 rats [4]; 90 days (24 weeks of age), vs untreated ZSF1 rats",significantly reduced
same,Glycosuria (urine glucose level),obese ZSF1 rats [5]; 8 days,reduced glycosuria
same,Glycosuria (urine glucose level),obese ZSF1 rats [5]; 90 days,reduced glycosuria
same,Urine volume,obese ZSF1 rats [6],decreased significantly urine volume
O=C(O)c1c[nH]c2cc(Cl)c(-c3ccc(C4(O)CCC4)cc3)cc12 [PF-06409577],Efficacy in a preclinical model of diabetic nephropathy,[7],showed efficacy
